For one experiment, the system named is human basophils. Nature of the experiment: Inhibition of mediator (histamine, peptide leukotriene) liberation from human basophils stimulated with mite antigen. In kind it is cell-based. The conditions noted are these: enzyme immunoassay. The gist of the method:
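Dextran-separated leukocyte fraction containing basophils from heparinized human blood, in D-PBS(+) with 0.1% BSA, pretreated with compound 15 min at 37 °C, then challenged with mite antigen for 10 min. Released histamine and peptide leukotrienes in supernatant quantified by enzyme immunoassay.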

The target of experiment [1] is T1, tyrosine kinase of 72 kDa (Rattus norvegicus, UniProt Q64725).
T1 construct: endogenous in cells; host or cells: RBL-2H3 cells
T1 sequence (Q64725 whole entry): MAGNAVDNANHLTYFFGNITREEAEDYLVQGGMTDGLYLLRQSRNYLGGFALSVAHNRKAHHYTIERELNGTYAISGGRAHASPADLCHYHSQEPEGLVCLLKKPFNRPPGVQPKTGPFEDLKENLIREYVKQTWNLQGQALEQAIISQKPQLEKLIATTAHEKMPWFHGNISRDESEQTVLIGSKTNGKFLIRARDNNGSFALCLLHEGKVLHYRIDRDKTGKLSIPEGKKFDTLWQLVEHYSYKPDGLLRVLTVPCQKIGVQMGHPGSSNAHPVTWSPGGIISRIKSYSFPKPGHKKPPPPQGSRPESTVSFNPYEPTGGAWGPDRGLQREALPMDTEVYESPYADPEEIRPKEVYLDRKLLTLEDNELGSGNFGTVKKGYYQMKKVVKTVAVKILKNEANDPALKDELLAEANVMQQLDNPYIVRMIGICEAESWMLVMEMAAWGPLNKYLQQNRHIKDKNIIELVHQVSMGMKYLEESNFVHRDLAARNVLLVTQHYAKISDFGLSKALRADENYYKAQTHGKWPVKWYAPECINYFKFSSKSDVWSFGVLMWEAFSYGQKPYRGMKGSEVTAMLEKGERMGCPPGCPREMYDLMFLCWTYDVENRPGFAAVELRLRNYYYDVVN
Nature of the experiment: Inhibition of activation (phosphorylation) of tyrosine kinase of 72 kDa due to antigenic stimulation in RBL-2H3 cells. In kind it is cell-based. As to the method: RBL-2H3 cells were incubated for 10 min together with a test compound in a PBS buffer containing 0.1% of BSA and 1 mM of calcium. Next, the cells were reacted with an antigen specific for the IgE receptor for 10 min. After the completion of the antigenic stimulation, the cells were allowed to stand in ice for 1 hr in a 10 mM phosphate buffer (pH 7.5) containing a lysis buffer (1% Triton X-100, 0.1% SDS, 0.5% sodium deoxycholate, 50 mM NaCl, 50 mM NaF, 1 mM phenylmethyl sulfonyl fluoride, 50 μg/ml eupeptin, 10 unit/ml aprotonin) and 0.1% of NaN3 followed by centrifugation to give a cell lysate. This lysate was diluted with a buffer for electrophoresis, heated (95° C., 5 min) and then electrophoresed on a 10% SDS-polyacrylamide gel. After the electrophoresis, the sample was electrically transcribed onto a 0.2 μm nitrocellulose membrane and treated with an anti-phosphotyrosine antibody for 1 hr. Then the inhibitory activity was evaluated by the coloring analysis through chemiluminescence.

Experiment [2] has as its target T2, IgE receptor γ chain and 72 kDa tyrosine kinase (Rattus norvegicus, UniProt Q64725).
T2 construct: The phosphorylation experiment of the 72 kDa tyrosine kinase contained in the lysate or cytosol; endogenous in cells; host or cells: RBL-2H3 cell lysate (1% NP-40) or cytosolic fraction
Put plainly: Inhibition of binding of IgE receptor γ chain to tyrosine kinase of 72 kDa (kinase phosphorylation in RBL-2H3 lysate or cytosol). The conditions noted are these: Conc. of Compd. 10 μM. It counts as biochemical. As to the method:
RBL-2H3 cells which are a cell line generally used in studying IgE-mediated intracellular signal transduction in mast cells and basophils were used in this study. Tyrosine-phosphorylated peptide in the tyrosine activation motif (TAM) region in the IgE receptor γ chain was synthesized by Peptide Institute.
In the experiment, cell lysates or cytosolic fraction of RBL-2H3 cells were used. Cell lysates were prepared by solubilizing 1×10^7 to 5×10^7 cells with a solution containing various protease inhibitors and 1%-NP-40 as a solubilizer. Separately, the cells were homogenized in a Downs homogenizer and centrifuged at 50,000 rpm for 1 hr, and the resulting supernatant was used as the cytosol fraction of the cells. The concentration of the lysate or cytosol was adjusted to 1 mg protein/ml with an isotonic buffer. The phosphorylation experiment of the 72 kDa tyrosine kinase contained in the lysate or cytosol was carried out in the following manner.
An assay buffer [150 mM NaCl, 10 mM KCl, 20 mM Tris (pH 7.5), 0.6 mM MnCl2, 0.5 mM EGTA, 5 mM NaF, 1 mM sodium pyrophosphate and 1 mM sodium orthovanadate] containing the lysate or cytosol in an amount corresponding to […] of protein was incubated together with the compound 101 at 30° C. for 3 min. After adding […] of the peptide in the TAM region containing the phosphorylated tyrosine and […] of ATP, the incubation was further effected at 30° C. for 15 min. After the completion of the reaction, the sample was electrophoresed on a 10% […] gel and a tyrosine kinase of 72 kDa was separated. The activation of this kinase was confirmed by examining the phosphorylation of the tyrosine moiety in the kinase per se by western blotting with the use of anti-tyrosine phosphorylation antibody. Then the extent of the phosphorylation was numerically expressed by using an image analyzer and thus the tyrosine kinase phosphorylation inhibitory ratio of the compound 101 was determined

A further experiment deals with RBL-2H3 cells. Nature of the experiment: Inhibition of serotonin liberation from IgE-sensitized RBL-2H3 cells after antigen stimulation. It counts as cell-based, rat. The settings on record: Rattus norvegicus. The gist of the method: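 Rat RBL-2H3 cells labelled with [3H]-serotonin and sensitized with IgE simultaneously, incubated with compound, then challenged with specific antigen. Inhibition derived from [3H]-serotonin released into medium relative to release without compound.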

[3] abbreviates: histamine, read-out: IC50 (μM) in mediator liberation from human basophils: histamine.
[4] abbreviates: peptide leukotriene, read-out: IC50 (μM) in mediator liberation from human basophils: leukotriene.
[5] abbreviates: [3H]-serotonin release, IgE-sensitized RBL-2H3 cells, antigen stimulation, read-out: IC50 (μM) in serotonin liberation from RBL-2H3 cells.

Like-named read-outs stand apart in the source and are kept apart here.

T2 sequence (Q64725 whole entry): as above

Regarding `Cc1ccc2c(c1C)N(CCCNCc1ccccc1)c1ccccc1[S+]2[O-]` (stereo not shown) [Example 22, 1,2-Dimethyl-10-(3-benzylaminopropyl)-phenothiazine-5-oxide], the results for the IC50 with human basophils (setting [3]), in the experiment on human basophils (setting [4]) and with RBL-2H3 cells (setting [5]) were 10 to 30 µM, 10 µM and 0.1 µM, respectively. Also, the “Inhibitory Strength (%)” value in experiment [1] (Conc. of Compd. 3 μM) was 100%; in experiment [2], 80%.

As for `Cc1ccc2c(c1C)N(CCCN1CCC(O)(c3ccccc3)CC1)c1ccccc1[S+]2[O-]` (stereo not shown) [Example 124], the IC50 is 10 to 30 µM with human basophils (setting [3]); 10 µM in the experiment on human basophils (setting [4]); 2 µM in the experiment with RBL-2H3 cells (RBL-2H3, read-out: IC50 (μM) in serotonin liberation from RBL-2H3 cells). The “Inhibitory Strength (%)” value in experiment [1] (Conc. of Compd. 10 μM) and in experiment [2] was 100% throughout.

Regarding `Cc1ccc2c(c1C)N(CCCN1CCC(Cc3ccccc3)CC1)c1ccccc1[S+]2[O-]` (stereo not shown) [Example 127], the IC50 in the experiment on human basophils (setting [3]) is 10 to 30 µM; in the experiment with human basophils (setting [4]), 10 µM; with RBL-2H3 cells (setting [5]), 2 µM. The “Inhibitory Strength (%)” value in experiment [1] (Conc. of Compd. 10 μM) and in experiment [2] was 100% in each case.

For `Cc1ccc2c(=NOCCC(=O)O)c3ccccc3n(CCCNCc3ccccc3)c2c1C` [Example 235], the IC50 was 30 µM in the experiment on human basophils (setting [3]), 30 µM with human basophils (setting [4]) and under 1 µM in the experiment with RBL-2H3 cells (setting [5]). The “Inhibitory Strength (%)” value in experiment [1] (Conc. of Compd. 3 μM) was 100%.

For the origin of these results see patent US6703388B2, “Nitrogen-containing tricyclic compounds and drugs containing the same” (Eisai Co., Ltd., priority 1996, dated 2004).
